Data as given in the supplement of paper PMC10307832.

Columns and labels:
Test in all cases: relative viability (nuclei count vs DMSO), 5 days (fraction); higher = more cells survive
[1] = compound: CN1C=C(C2=CC=CC=C21)/C=C\3/C4=C(C=CC=N4)NC3=O + Nc1nc2[nH]cc(CCc3ccc(C(=O)N[C@@H](CCC(=O)O)C(=O)O)cc3)c2c(=O)[nH]1 [Pemetrexed] (partner 0.2 µM)
Summary of the method: (§1)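 Lung cancer cell lines, seeded in 1536-well plates, were treated the following day by pin tool with a single drug or with five library-drug doses (not always all listed) in √10 steps on top of a fixed anchor-drug dose. Cells were fixed and nuclei stained in one step after 5 days, and nuclei were counted. Relative viability is the nuclei count for treated wells divided by that for vehicle wells, reported as medians of duplicate plates.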

[2] = compound: CN1C=C(C2=CC=CC=C21)/C=C\3/C4=C(C=CC=N4)NC3=O + CS(=O)(=O)CCNCc1ccc(-c2ccc3ncnc(Nc4ccc(OCc5cccc(F)c5)c(Cl)c4)c3c2)o1 [Lapatinib] (partner 2 µM)
Summary of the method: as §1

Trametinib + AZD7762 = compound: CC(=O)Nc1cccc(-n2c(=O)n(C3CC3)c(=O)c3c(Nc4ccc(I)cc4F)n(C)c(=O)c(C)c32)c1 [Trametinib] + NC(=O)Nc1cc(-c2cccc(F)c2)sc1C(=O)N[C@H]1CCCNC1 [AZD7762] (partner 0.2 µM)
Summary of the method: as §1

Trametinib + Phenformin = compound: CC(=O)Nc1cccc(-n2c(=O)n(C3CC3)c(=O)c3c(Nc4ccc(I)cc4F)n(C)c(=O)c(C)c32)c1 [Trametinib] + N=C(N)NC(=N)NCCc1ccccc1 [Phenformin] (partner 250 µM)
Summary of the method: as §1

Cell Line	relative viability ([1]; first compound 0.02 µM)	relative viability ([1]; first compound 0.06325 µM)	relative viability ([1]; first compound 0.2 µM)	relative viability ([1]; first compound 0.6325 µM)	relative viability ([1]; first compound 2 µM)	relative viability ([2]; first compound 0.02 µM)	relative viability ([2]; first compound 0.06325 µM)	relative viability ([2]; first compound 0.2 µM)	relative viability ([2]; first compound 0.6325 µM)	relative viability ([2]; first compound 2 µM)	relative viability (Trametinib + AZD7762; first compound 0.0025 µM)	relative viability (Trametinib + AZD7762; first compound 0.007906 µM)	relative viability (Trametinib + AZD7762; first compound 0.025 µM)	relative viability (Trametinib + AZD7762; first compound 0.07906 µM)	relative viability (Trametinib + AZD7762; first compound 0.25 µM)	relative viability (Trametinib + Phenformin; first compound 0.0025 µM)	relative viability (Trametinib + Phenformin; first compound 0.007906 µM)	relative viability (Trametinib + Phenformin; first compound 0.025 µM)	relative viability (Trametinib + Phenformin; first compound 0.07906 µM)	relative viability (Trametinib + Phenformin; first compound 0.25 µM)
NCI-H1437	0.305	0.294	0.344	0.343	0.335	0.837	0.842	0.708	0.841	0.938	1.13	0.981	0.625	0.466	0.454	0.258	0.205	0.23	0.201	0.206
PC-14	0.141	0.137	0.145	0.143	0.118	0.262	0.289	0.256	0.275	0.315	0.354	0.274	0.224	0.193	0.203	0.568	0.531	0.322	0.212	0.102
H3255	0.578	0.549	0.493	0.615	0.54	0.267	0.269	0.205	0.232	0.209	0.805	0.736	0.8	0.733	0.505	0.346	0.368	0.342	0.297	0.263
NCI-H2126	0.694	0.62	0.674	0.669	0.594	0.678	0.796	0.671	0.748	0.674	1.05	0.929	0.632	0.766	0.753	0.501	0.464	0.419	0.481	0.466
HCC-366	0.148	0.142	0.196	0.155	0.133	0.816	0.976	0.952	1.15	1.08	0.24	0.24	0.323	0.167	0.143	0.57	0.574	0.372	0.49	0.226
LU99A	0.156	0.182	0.176	0.173	0.186	0.986	0.805	0.9	0.964	0.85	0.365	0.353	0.2	0.214	0.179	0.895	0.812	0.642	0.588	0.455
HOP-62	0.285	0.299	–	0.357	0.366	1.28	1.21	0.688	0.882	1.06	0.737	0.461	0.251	0.243	0.211	0.692	0.643	0.441	0.331	0.209
HCC-15	0.228	0.211	0.223	0.217	0.211	0.827	0.71	0.903	0.886	0.932	1.29	1	1.14	0.928	0.407	0.361	0.229	0.18	0.179	0.145
HARA	0.24	0.24	–	0.263	0.216	0.703	0.653	0.665	0.857	0.768	0.447	0.394	0.365	0.276	0.215	0.399	0.426	0.386	0.373	0.214
NCI-H1355	0.885	0.924	0.99	0.916	0.851	0.952	0.784	0.7	0.637	0.646	0.747	0.706	0.539	0.599	0.591	0.394	0.415	0.322	0.382	0.308
NCI-H838	0.249	0.235	0.234	0.247	0.246	0.774	0.9	0.813	0.785	0.896	0.943	0.827	0.858	0.858	0.697	0.515	0.509	0.281	0.369	0.351
HCC-44	0.58	0.613	0.664	0.648	0.636	0.912	0.963	0.928	0.834	0.9	0.958	1.07	1.2	1.31	1.05	0.249	0.181	0.187	0.0805	0.0783
LK-2	0.192	0.241	0.199	0.309	0.297	–	0.568	–	0.756	1.03	0.347	0.544	0.288	0.259	0.12	0.433	0.649	0.379	0.35	0.142
HCC-827	0.227	0.28	–	0.247	0.258	0.21	0.185	–	0.159	0.179	0.226	0.17	0.153	0.183	0.161	0.374	0.373	0.334	0.313	0.313
EPLC-272H	0.3	0.274	0.298	–	0.369	0.979	0.819	–	0.995	0.883	0.223	0.242	0.175	0.17	0.225	0.273	0.194	0.171	0.15	0.128
NCI-H358	0.172	0.15	0.167	0.172	0.164	0.46	0.419	0.436	0.55	0.446	0.388	0.39	0.331	0.264	0.292	0.201	0.189	0.146	0.124	0.121
NCI-H1395	0.82	0.739	0.707	0.845	0.815	0.878	1.01	–	0.948	0.885	0.399	0.377	0.41	0.361	0.367	0.479	0.445	0.432	0.416	0.328
NCI-H2085	0.789	0.927	0.836	0.975	0.967	0.746	0.654	0.596	0.605	0.813	0.81	0.752	0.391	0.518	0.541	0.588	0.509	0.332	0.464	0.25
NCI-H2087	0.671	0.62	0.622	0.631	0.656	1.28	0.757	0.968	0.949	1.07	1.26	1.38	0.633	0.313	0.324	0.294	0.258	0.146	0.153	0.111
NCI-H322M	0.606	0.575	0.598	0.673	0.641	0.566	0.631	0.597	0.548	0.631	0.602	0.436	0.482	0.414	0.425	0.679	0.577	0.525	0.501	0.43
NCI-H1734	0.348	0.4	–	0.425	0.418	1.01	1.01	–	1.02	1.08	0.476	0.451	–	0.509	0.369	0.289	0.292	0.217	0.245	0.206
EKVX	0.371	–	–	0.354	0.352	0.221	0.148	0.156	0.188	0.167	0.653	0.712	0.583	0.442	0.769	0.234	0.209	0.198	0.192	0.24
NCI-H596	0.494	0.494	0.527	0.456	0.531	1.05	1.03	0.889	1.02	0.99	0.942	1.05	0.921	0.756	0.653	0.713	0.704	0.485	0.622	0.411
NCI-H1975	0.265	0.28	0.3	0.283	0.264	0.839	0.929	0.775	0.903	0.77	0.69	0.551	0.473	0.421	0.401	0.386	0.308	0.291	0.234	0.124
NCI-H2170	0.261	0.254	0.292	0.264	0.257	–	0.253	0.233	0.264	0.284	0.878	0.84	–	0.748	0.556	0.351	0.414	0.399	0.357	0.333
NCI-H1666	0.896	0.861	0.847	0.765	0.737	0.781	0.606	0.512	0.599	0.532	0.726	0.735	0.669	0.637	0.665	0.526	0.574	0.6	0.57	0.513
PC-3 [JPC-3]	0.846	1.05	1.07	0.8	0.79	0.405	0.425	0.441	0.376	0.447	0.714	0.501	0.506	–	0.568	0.46	0.463	0.427	0.405	0.373
